Data set [1] has as its system skin of hairless mice. Conditions: topical in acetone, once daily days 1 through 5, mean ±SD, range 0-21. An excerpt: This irritation is a direct result of activation of the RAR nuclear receptors. Analysis of retinoid topical irritation is also a highly reproducible method of determining in vivo retinoid potency. The SKH1-hrBR or hairless mouse provides a convenient animal model of topical irritation, since retinoid-induced skin flaking and abrasion can be readily scored by eye (Standeven et al., “Specific antagonist of retinoid toxicity in mice.” Toxicol. Appl. Pharmacol., 138:169-175, (1996); Thacher, et al., “Receptor specificity of retinoid-induced hyperplasia. Effect of RXR-selective agonists and correlation with topical irritation”. J. Pharm. Exp. Ther., 282:528-534, (1997)).
Female hairless mice (Crl:SKH1-hrBR), 5-7 weeks old, were obtained from Charles River Breeding Labs (Wilmington, Mass.). […]
The mice were weighed daily and the dorsal skin was graded daily using separate semi-quantitative scales to determine flaking and abrasion. […]
Flaking onset score (2) and average severity score (3) are summed and divided by two. […] Composite flaking scores are calculated for each individual animal in a group, averaged, and rounded to the nearest integer. […]
Abrasion onset score (5) and average severity score (6) are summed and divided by two. […] Composite abrasion scores are calculated for each individual animal in a group, averaged and rounded to the nearest integer. […]

The target in data set [2] is T1, RARβ (Homo sapiens, UniProt P10826).
T1 sequence (P10826 1-455): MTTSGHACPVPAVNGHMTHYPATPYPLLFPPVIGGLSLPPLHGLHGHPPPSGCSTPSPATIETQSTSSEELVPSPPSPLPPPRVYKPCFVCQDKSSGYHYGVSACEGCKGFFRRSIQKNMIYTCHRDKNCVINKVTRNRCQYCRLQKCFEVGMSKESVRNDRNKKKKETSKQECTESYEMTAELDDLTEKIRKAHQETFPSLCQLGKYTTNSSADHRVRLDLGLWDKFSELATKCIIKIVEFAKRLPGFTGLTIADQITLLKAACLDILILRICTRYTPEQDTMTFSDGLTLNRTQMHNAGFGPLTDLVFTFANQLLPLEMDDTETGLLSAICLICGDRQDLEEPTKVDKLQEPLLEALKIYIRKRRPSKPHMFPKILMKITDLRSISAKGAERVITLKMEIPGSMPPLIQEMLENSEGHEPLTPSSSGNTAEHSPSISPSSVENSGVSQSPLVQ
The experiment in a line: ligand binding assay, RARβ. Conditions: read-out: RAR β Kd. The text has this:
(§1) Assays described below measure the ability of a compound to bind to, and/or activate various retinoid receptor subtypes. When in these assays a compound binds to a given receptor subtype and activates the transcription of a reporter gene through that subtype, then the compound is considered an agonist of that receptor subtype. […] In the below described assays the ability of the compounds to bind to RAR60 , RAR62 , RARγ, RXR60 , RXR62 , and RXRγ receptors, and the ability or inability of the compounds to activate transcription of a reporter gene through these receptor subtypes can be tested.
A holoreceptor transactivation assay and a ligand binding assay which measure the antagonist/agonist like activity of the compounds of the invention, or their ability to bind to the several retinoid receptor subtypes, respectively, are described in published PCT Application No. WO WO93/11755 (particularly on pages 30-33 and 37-41) published on Jun. 24, 1993, the specification of which is also incorporated herein by reference. […] The results obtained in this assay are expressed in EC50 numbers, as they are also in the chimeric receptor transactivation assay. The results of ligand binding assay are expressed in Kd numbers. (See Cheng et al. Biochemical Pharmacology Vol. 22 pp 3099-3108, expressly incorporated herein by reference.)

The target in data set [3] is T2, P450RAI-1 stably transfected HeLa cells (Homo sapiens, UniProt O43174).
T2 construct: expressed in transfected cells; host or cells: HeLa cells, stably transfected, hygromycin selection
T2 sequence (O43174 1-497): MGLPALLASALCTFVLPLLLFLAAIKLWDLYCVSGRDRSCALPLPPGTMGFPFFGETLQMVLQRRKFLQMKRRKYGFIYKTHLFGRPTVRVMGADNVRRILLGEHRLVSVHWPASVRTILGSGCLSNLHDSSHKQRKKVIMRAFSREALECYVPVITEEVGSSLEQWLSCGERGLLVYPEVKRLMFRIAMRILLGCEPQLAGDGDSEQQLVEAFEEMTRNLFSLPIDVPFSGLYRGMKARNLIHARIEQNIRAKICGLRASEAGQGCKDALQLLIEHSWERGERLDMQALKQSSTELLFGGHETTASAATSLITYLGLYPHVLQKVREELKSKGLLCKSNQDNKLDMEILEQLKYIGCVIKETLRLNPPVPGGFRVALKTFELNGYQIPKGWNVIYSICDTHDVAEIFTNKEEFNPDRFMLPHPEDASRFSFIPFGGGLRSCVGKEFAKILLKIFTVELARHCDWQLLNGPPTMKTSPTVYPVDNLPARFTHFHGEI
Nature of the data set: P450RAI-1 cell-based inhibitor assay. To be noted: inhibition of all-trans-RA metabolism, [3H]-RA, 3 hours at 37° C.; read-out: P450RAI INHIBITION DATA INTACT HELA IC50. On the procedure: P450RAI-1 Cell-Based Inhibitor Assay:
P450RAI -1 stably transfected HeLa cells are maintained in […] tissue culture dishes in Modified Eagle's Medium (MEM) containing 10% Fetal Bovine Serum (FBS) and 100 μg/ml hygromycin. Exponentially growing cells are harvested by incubating in trypsin. Cells are then washed with 1× Phosphate Buffered Saline (PBS) and plated in a 48-well plate at 5×10^5 cells in 0.2 ml MEM medium containing 10% FBS and 0.05 μCi [^3H]-RA in the presence or absence of increasing concentrations of the test compounds. The compounds are diluted in 100% DMSO and then added in triplicate wells at either 10, 1 or 0.1 μM final concentration. As a positive control for RA metabolism inhibition, cells are also incubated with ketoconazole at 100, 10 and 1 μM. Cell are incubated for 3 hours at 37° C. […] The water soluble radioactivity is quantified using a β-scintillation counter. IC50 values represent the concentration of inhibitor required to inhibit all-trans-RA metabolism by 50 percent and are derived manually from log-transformed data.

Data set [4] addresses T3, RARα (Homo sapiens, UniProt P10276).
T3 sequence (P10276 1-462): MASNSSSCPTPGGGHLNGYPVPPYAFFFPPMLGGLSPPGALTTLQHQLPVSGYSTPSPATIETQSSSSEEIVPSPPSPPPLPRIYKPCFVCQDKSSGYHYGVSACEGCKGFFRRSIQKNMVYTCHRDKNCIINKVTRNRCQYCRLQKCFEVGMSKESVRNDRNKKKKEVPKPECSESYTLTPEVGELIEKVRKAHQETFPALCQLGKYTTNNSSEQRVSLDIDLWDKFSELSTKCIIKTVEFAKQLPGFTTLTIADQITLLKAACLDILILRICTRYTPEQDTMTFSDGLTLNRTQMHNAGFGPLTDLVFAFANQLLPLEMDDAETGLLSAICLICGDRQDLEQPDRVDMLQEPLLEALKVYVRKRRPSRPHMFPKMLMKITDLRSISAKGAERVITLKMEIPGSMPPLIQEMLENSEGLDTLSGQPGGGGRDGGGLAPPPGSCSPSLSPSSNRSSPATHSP
Nature of the data set: ligand binding assay, RARα. Conditions: read-out: RAR α Kd.
Text: as §1
A holoreceptor transactivation assay and a ligand binding assay which measure the antagonist/agonist like activity of the compounds of the invention, or their ability to bind to the several retinoid receptor subtypes, respectively, are described in published PCT Application No. WO WO93/11755 (particularly on pages 30-33 and 37-41) published on Jun. 24, 1993, the specification of which is also incorporated herein by reference. A detailed experimental procedure for holoreceptor transactivations has been described by Heyman et al. Cell 68,397-406, (1992); Allegretto et al. J. Biol. Chem. 268,26625-26633, and Mangelsdorf et al. The Retinoids: Biology, Chemistry and Medicine, pp 319-349, Raven Press Ltd., New York, which are expressly incorporated herein by reference. […]

Read-outs that look alike come from different tables or passages of the source.

`CC1(C)CCC(=O)c2ccc(C#Cc3ccc(CC(=O)O)c(F)c3)cc21` [Compound 15, [2-Fluoro-4-(8.8-dimethyl-5-oxo-5,6,7,8-tetrahydro-naphthalene-2-yl-ethynyl)phenyl]-acetic acid]: the “Cutaneous Toxicity Score (Blackjack Score)” value in data set [1] (100 nmole (nmol/25 g)) was found to be 1 ± 1; in data set [1] (1000 nmole (nmol/25 g)) it was 5 ± 2.
`Cc1cc(C#Cc2ccc(CC(=O)O)cc2)ccc1Cn1ccnc1` [Compound 121, [4-(4-Imidazol-1-yl-methyl-3-methyl-phenylethynyl)-phenyl]-acetic acid]: the equilibrium dissociation constant (Kd) (as a rule, a measure of binding affinity in units of concentration) was > 100 µM in data set [2] and > 10 µM in data set [4]. In addition, the IC50 (in general, the concentration that gives 50% inhibition) in data set [3] was found to be 0.18 µM.

Values taken from US20020160986A1, “Compounds having activity as inhibitors of cytochrome P450RAI” (priority 2000, published 2002).
